This is an account of results in patent US4341768A, “Antibiotic compounds” (priority 1981, dated 1982).

One data set can be described thus: Acute toxicity in mice. The data set is classed as in vivo. As to conditions: for LD50: mouse, in vivo. The procedure: The acute toxicities of Bu-2470 A and B1 were determined in mice by intravenous(iv) and subcutaneous (sc) routes. Colistin was tested comparatively as a reference compound.

Bridge positions count the residues as written; N and C are the ends. Square brackets hold non-standard residues; d marks the D form. Peptide text beside a SMILES is read from it. * marks the point of attachment. X1 = CCC(C)CCCCC(O)CC(=O)*; dDab = NCC[C@@H](N)C(=O)O; Dab = NCC[C@H](N)C(=O)O

What is called LD50 is the dose at which mortality reaches 50%. `CC(C)C[C@@H]1NC(=O)[C@H](CCN)NC(=O)[C@H](CCN)NC(=O)[C@H](CC(C)C)NC(=O)[C@@H](Cc2ccccc2)NC(=O)[C@H](CCN)NC(=O)[C@@H](NC(=O)[C@H](N)CCN)CCNC1=O` [Bu-2470A] (H-[dDab][Dab][Dab][dF]L[Dab][Dab]L; lactam 2-C): the “Acute toxicity relative to colistin” value in “Acute toxicity in mice” (iv route) is given as “less toxic than colistin”; in “Acute toxicity in mice” (sc route), “more toxic”. For the same compound, the LD50 in the data set “Acute toxicity in mice” (intravenous) was 35 mg/kg; in the data set “Acute toxicity in mice” (sc, subcutaneous) it was 56 mg/kg. Also, the “Solubility in aqueous lower alcohols, aqueous dioxane, dimethylsulfoxide and dimethylformamide” value in the data set “Solubility” (aqueous lower alcohols, aqueous dioxane, dimethylsulfoxide, dimethylformamide) is recorded as “readily soluble”. The “Solubility in lower alcohols” value in the data set “Solubility” (lower alcohols) was “slightly soluble”. Further, in the data set “Solubility” (other organic solvents), the “Solubility in other organic solvents” value is recorded as “practically insoluble”. Also, the Solubility in water entry in the data set “Solubility” (water over a wide pH range) is listed as “readily soluble”.
In the case of `CCC(C)CCCCC(O)CC(=O)N[C@H](CCN)C(=O)N[C@H]1CCNC(=O)[C@H](CC(C)C)NC(=O)[C@H](CCN)NC(=O)[C@H](CCN)NC(=O)[C@H](CC(C)C)NC(=O)[C@@H](Cc2ccccc2)NC(=O)[C@H](CCN)NC1=O` (stereo partly drawn) [Bu-2470B1] (X1-[dDab][Dab][Dab][dF]L[Dab][Dab]L; lactam 2-C), the “Acute toxicity relative to colistin” value in the data set “Acute toxicity in mice” (iv route) and in “Acute toxicity in mice” (sc route) was “less toxic than colistin” each time. The LD50 was found to be 35 mg/kg in “Acute toxicity in mice” (intravenous) and 280 mg/kg in “Acute toxicity in mice” (sc, subcutaneous).
